Our source for the EC50 and IC50 values is patent US10364226B2, “Pyridazinone compounds and uses thereof” (priority 2013, dated 2019).

The first experiment relates to Influenza strain A549 A/WSN/33 (H1N1). Put plainly: Influenza Antiviral Assay. It is filed as cell-based, Influenza A virus. Particulars: Influenza A virus, A549, 20 h, neuraminidase fluorescence readout, read-out: % Inhibition.
As to `CC(NC(=O)c1nn(CC2(c3cccc(C(F)(F)F)c3)CCCC2)cc(O)c1=O)c1ccccc1` (stereo not drawn) [Compound 637], the EC50 was less than 20 µM. Same read-out and setting: with `CNC(=O)c1nn(Cc2ccccc2-c2ccc(C(C)(C)C)cc2)cc(O)c1=O` [Compound 642] the figure was greater than 100 µM; with `CNC(=O)c1nn(-c2ccccc2Sc2cccc(Cl)c2)cc(O)c1=O` [Compound 643], greater than 100 µM. As for `CNC(=O)c1nn(CC(Cc2ccccc2)c2cccc(C(F)(F)F)c2)cc(O)c1=O` (stereo not drawn) [Compound 647], the EC50 is less than 20 µM. `CNC(=O)c1nn(-c2ccccc2-c2ccc3ccncc3c2)cc(O)c1=O` [Compound 651]: the EC50 was in the range of 20 to 100 µM. Still for that read-out and setting: with `CNC(=O)c1nn(-c2ccccc2-c2cc(C)cc(OCC3CC3)c2)cc(O)c1=O` [Compound 652] the figure was greater than 100 µM.

Consider `Cc1cc(OCC2CC2)cc(-c2ccccc2-n2cc(O)c(=O)c(C(=O)O)n2)c1` [Compound 653], for which the EC50 is greater than 100 µM. Still for that read-out and setting: with `CC(C)(C)c1ccc(-c2ccccc2Cn2cc(O)c(=O)c(C(=O)O)n2)cc1` [Compound 657] the figure was greater than 100 µM; with `CNC(=O)c1nn(C(Cc2ccccc2)C(=O)NC)cc(O)c1=O` (stereo not drawn) [Compound 667], greater than 100 µM. On the same count and under the same terms, with `CNC(=O)c1nn(C(Cc2ccccc2)C(=O)Nc2ccccc2)cc(O)c1=O` (stereo not drawn) [Compound 668] the figure was greater than 100 µM; with `Cc1[nH]c2ccc(CNC(=O)c3nn(CC4(c5cccc(C(F)(F)F)c5)CCCC4)cc(O)c3=O)cc2c1C` [Compound 672], less than 20 µM.

For `CNC(=O)c1nn(CC2(n3cc(-c4cncnc4)c4cccnc43)CCCC2)cc(O)c1=O` [Compound 673], the EC50 is greater than 100 µM. Same read-out and setting: with `CNC(=O)c1nn(CC2(c3ccc(OC)cc3)CC2)cc(O)c1=O` [Compound 675] the figure was greater than 100 µM. Take `CNC(=O)c1nn(CC2(c3cccc(OC(F)(F)F)c3)CCCC2)cc(O)c1=O` [Compound 684]: the EC50 is less than 20 µM. The same measure, in the same setting: with `CNC(=O)c1nn(CC2(c3ccc(C(C)C)cc3)CC2)cc(O)c1=O` [Compound 688] the figure was less than 20 µM; with `CNC(=O)c1nn(Cc2cc(C(F)(F)F)ccc2-c2ccccc2)cc(O)c1=O` [Compound 689], greater than 100 µM; with `CNC(=O)c1nn(Cc2cc(C(F)(F)F)ccc2-c2ccc(C(C)(C)C)cc2)cc(O)c1=O` [Compound 690], greater than 100 µM. Consider `O=C(NCc1ccccn1)c1nn(CC2(c3ccccc3)CCCC2)cc(O)c1=O` [Compound 691], for which the EC50 was less than 20 µM. As to `O=C(Nc1ccc(Oc2ccccc2)cc1)c1nn(CC2(c3ccccc3)CCCC2)cc(O)c1=O` [Compound 696], the EC50 is greater than 100 µM. In the case of `COc1ccc(NC(=O)c2nn(CC3(c4ccccc4)CCCC3)cc(O)c2=O)cc1` [Compound 697], the EC50 is greater than 100 µM. Still for that read-out and setting: with `O=C(NCc1ccccc1)c1nn(CC2(c3ccccc3)CCCC2)cc(O)c1=O` [Compound 698] the figure was less than 20 µM; with `O=C(NCc1cccnn1)c1nn(CC2(c3ccccc3)CCCC2)cc(O)c1=O` [Compound 699], less than 20 µM; with `CNC(=O)c1nn(CC2(c3cccc(C(C)C)c3)CC2)cc(O)c1=O` [Compound 702], less than 20 µM. Same read-out and setting: as for `COc1ccc(NC(=O)c2nn(CC3(c4ccccc4)CCCC3)cc(O)c2=O)cc1OC` [Compound 705], the figure is greater than 100 µM. The same measure, in the same setting: as for `CC(C)Oc1ccc(NC(=O)c2nn(CC3(c4ccccc4)CCCC3)cc(O)c2=O)cc1` [Compound 706], the figure is greater than 100 µM.

In the case of `O=C(Nc1ccc(Cl)cc1Cl)c1nn(CC2(c3ccccc3)CCCC2)cc(O)c1=O` [Compound 707], the EC50 was less than 20 µM. Turning to `CNC(=O)c1nn(CC2(c3ccc(-c4ccnn4C)cc3)CC2)cc(O)c1=O` [Compound 710], the EC50 was greater than 100 µM. On the same count and under the same terms, as for `CNC(=O)c1nn(CC2(c3cccc(C4CCCCC4)c3)CCCC2)cc(O)c1=O` [Compound 711], the figure is less than 20 µM.

On to `CNC(=O)c1nn(CC2(c3cccc(-c4cn[nH]c4)c3)CC2)cc(O)c1=O` [Compound 712], for which the EC50 was greater than 100 µM. On the same count and under the same terms, as for `CNC(=O)c1nn(CC2(c3cccc(-c4ccnn4C)c3)CC2)cc(O)c1=O` [Compound 713], the figure is greater than 100 µM; as for `CNC(=O)c1nn(CC2(c3cccc(-c4cn[nH]c4)c3)CCCC2)cc(O)c1=O` [Compound 714], greater than 100 µM; as for `O=C(Nc1ccc(Cl)c(C(F)(F)F)c1)c1nn(CC2(c3ccccc3)CCCC2)cc(O)c1=O` [Compound 719], greater than 100 µM.

As for `CS(=O)(=O)c1ccc(NC(=O)c2nn(CC3(c4ccccc4)CCCC3)cc(O)c2=O)cc1` [Compound 721], the EC50 is greater than 100 µM. As for `CNC(=O)c1nn(CC2(c3cccc(-c4ccsc4)c3)CC2)cc(O)c1=O` [Compound 724], the EC50 was greater than 100 µM. Still for that read-out and setting: as for `CNC(=O)c1nn(CC2(c3cccc(Oc4ccccc4)c3)CCCC2)cc(O)c1=O` [Compound 725], the figure is less than 20 µM; as for `CNC(=O)c1nn(CC2(c3cccc(-c4cnc5ccccc5c4)c3)CC2)cc(O)c1=O` [Compound 726], less than 20 µM; as for `CNC(=O)c1nn(CC2(c3cccc(-c4cncc(F)c4)c3)CC2)cc(O)c1=O` [Compound 727], greater than 100 µM.

In the case of `CNC(=O)c1nn(CC2(c3ccc(-c4cn[nH]c4)cc3)CC2)cc(O)c1=O` [Compound 728], the EC50 is greater than 100 µM. Regarding `CNC(=O)c1nn(CC2(c3ccc(C4CCCCC4)cc3)CC2)cc(O)c1=O` [Compound 729], the EC50 is greater than 100 µM. Still for that read-out and setting: with `CNC(=O)c1nn(CC2(c3cccc(-c4ccnn4C)c3)CCCC2)cc(O)c1=O` [Compound 731] the figure was greater than 100 µM.

A further experiment has as its target EN PA (Influenza A virus, UniProt P15659). The experiment is described as follows: EN PA FRET Inhibition Assay. It is filed as biochemical. Particulars: read-out: Potency.
As for `CNC(=O)c1nn(-c2ccccc2-c2ccc3ccn(C)c3c2)cc(O)c1=O` [Compound 618], the IC50 is no less than 1 µM. On to `CNC(=O)c1nn(-c2ccccc2-c2ccc3c(ccn3C)c2)cc(O)c1=O` [Compound 620], for which the IC50 is no less than 1 µM.

Turning to `CNC(=O)c1nn(CC2(c3ccccc3)CCCC2)cc(O)c1=O` [Compound 627], the IC50 fell in the range of 0.1 to 1 µM. On the same count and under the same terms, with `CNC(=O)c1nn(-c2ccccc2N2CCCc3ccccc32)cc(O)c1=O` [Compound 628] the figure was no less than 1 µM; with `CNC(=O)c1nn(-c2ccccc2-c2cc(Cl)cc(OC)c2)cc(O)c1=O` [Compound 629], no less than 1 µM.

With `CNC(=O)c1nn(-c2ccccc2-c2ccccc2OCC(C)C)cc(O)c1=O` [Compound 630], the IC50 fell in the range of 0.1 to 1 µM.

On to `CNC(=O)c1nn(-c2ccccc2N2CCc3ccccc32)cc(O)c1=O` [Compound 632], for which the IC50 was no less than 1 µM.

Regarding `CCOc1cc(C)cc(-c2ccccc2-n2cc(O)c(=O)c(C(=O)NC)n2)c1` [Compound 633], the IC50 is no less than 1 µM. Same read-out and setting: as for `CNC(=O)c1nn(CCc2cccc3ccccc23)cc(OC(C)=O)c1=O` [Compound 636], the figure is no less than 1 µM; as for `CNC(=O)c1nn(CC2(c3cccc(Oc4ccccc4)c3)CCCC2)cc(O)c1=O` [Compound 701], less than 0.1 µM; as for `O=C(NCc1ccc(F)c(Cl)c1)c1nn(CC2(c3cccnc3)CCCC2)cc(O)c1=O` [Compound 802], less than 0.1 µM. In the case of `O=C(NCc1ccc(F)c(Cl)c1)c1nn(CC2(c3ccc(Cl)cc3)CCCC2)cc(O)c1=O` [Compound 803], the IC50 is less than 0.1 µM. `O=C(NCc1ccccc1)c1nn(CC2(c3ccc(Cl)cc3)CCCC2)cc(O)c1=O` [Compound 804]: the IC50 is less than 0.1 µM. For `O=C(NCc1ccc(F)c(Cl)c1)c1nn(CC2(c3ccc(F)c(F)c3)CCCC2)cc(O)c1=O` [Compound 805], the IC50 was less than 0.1 µM.
